Biological target: T1, recombinant Plk1 protein (Homo sapiens, UniProt P53350)
T1 construct: histidine tag (N); made in house; host or cells: SF9 insect cells
Assay: Plk1 kinase activity inhibition assay (33P-ATP, alpha casein substrate, flash plates)
Type: biochemical
Conditions: enzymatic assay, 100 nM Li-ATP, 80 minutes at 30° C.
Method in brief: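 N-terminally His-tagged human Plk1 from SF9 cells (50–100 ng/well) phosphorylated alpha casein (500 ng/well) with 100 nM ATP including 33P-ATP at pH 7.5, with Mg2+ and Mn2+, 80 min at 30 °C. 33P incorporation read on scintillator-coated flash plates; IC50 derived.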

T1 sequence (P53350 whole entry): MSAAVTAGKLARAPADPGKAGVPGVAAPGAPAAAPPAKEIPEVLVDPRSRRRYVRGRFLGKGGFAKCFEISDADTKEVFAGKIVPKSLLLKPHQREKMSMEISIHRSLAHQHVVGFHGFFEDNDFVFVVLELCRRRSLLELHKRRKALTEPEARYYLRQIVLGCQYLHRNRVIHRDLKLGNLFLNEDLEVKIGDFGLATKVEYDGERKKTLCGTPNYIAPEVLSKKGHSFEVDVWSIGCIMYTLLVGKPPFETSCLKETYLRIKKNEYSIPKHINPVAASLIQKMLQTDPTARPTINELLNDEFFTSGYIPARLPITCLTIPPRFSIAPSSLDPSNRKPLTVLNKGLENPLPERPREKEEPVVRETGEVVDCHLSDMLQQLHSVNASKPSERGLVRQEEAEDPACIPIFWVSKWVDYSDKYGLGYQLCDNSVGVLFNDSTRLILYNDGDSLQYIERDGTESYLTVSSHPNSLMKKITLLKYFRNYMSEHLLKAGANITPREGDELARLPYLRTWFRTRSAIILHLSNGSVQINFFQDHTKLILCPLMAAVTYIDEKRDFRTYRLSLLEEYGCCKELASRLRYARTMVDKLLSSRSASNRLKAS

Which IC50 does the source give for `CC(Oc1cc(-n2cnc3cnc(CN4CCN(C)CC4)cc32)sc1C(N)=O)c1ccc(F)cc1C(F)(F)F` (stereo not drawn) [Example 97, 3-{1-[4-fluoro-2-(trifluoromethyl)phenyl]ethoxy}-5-{6-[(4-methylpiperazin-1-yl)methyl]-1H-imidazo[4,5-c]pyridin-1-yl}thiophene-2-carboxamide] here?
The IC50 was less than 10 nM.

How did the IC50 turn out when `CC1CN(Cc2cc3c(cn2)ncn3-c2cc(O[C@H](C)c3ccccc3C(F)(F)F)c(C(N)=O)s2)CCN1C` (stereo partly drawn) [Example 74, 5-{6-[(3,4-dimethylpiperazin-1-yl)methyl]-1H-imidazo[4,5-c]pyridin-1-yl}-3-{(1R)-1-[2-(trifluoromethyl)phenyl]ethoxy}thiophene-2-carboxamide] was run?
The IC50 was less than 10 nM.

`C[C@@H](Oc1cc(-n2cnc3cnc(CN4CCCN(C)CC4)cc32)sc1C(N)=O)c1ccccc1C(F)(F)F` [Example 164, 5-{6-[(4-methyl-1,4-diazepan-1-yl)methyl]-1H-imidazo[4,5-c]pyridin-1-yl}-3-{(1R)-1-[2-(trifluoromethyl)phenyl]ethoxy}thiophene-2-carboxamide] was tested. Which IC50 did it give?
Its IC50 is less than 10 nM.

With `CC(Oc1cc(-n2cnc3cc(CO)ncc32)sc1C(N)=O)c1ccccc1F` (stereo not drawn) [Example 163, 3-[-1-(2-fluorophenyl)ethoxy]-5-[6-(hydroxymethyl)-3H-imidazo[4,5-c]pyridin-3-yl]thiophene-2-carboxamide] as the molecule, how does the IC50 read?
The IC50 was 10 to 100 nM.

With `C[C@@H](Oc1cc(-n2cnc3cnc(CNC4CCC4)cc32)sc1C(N)=O)c1ccccc1C(F)(F)F` [Example 105, 5-{6-[(cyclobutylamino)methyl]-1H-imidazo[4,5-c]pyridin-1-yl}-3-{(1R)-1-[2-(trifluoromethyl)phenyl]ethoxy}thiophene-2-carboxamide] as the molecule, how does the IC50 read?
The IC50 was 10 to 100 nM.

For `CC(C)N1CCN(Cc2cc3c(cn2)ncn3-c2cc(O[C@H](C)c3ccccc3C(F)(F)F)c(C(N)=O)s2)CC1` [Example 121, 5-{6-[(4-isopropylpiperazin-1-yl)methyl]-1H-imidazo[4,5-c]pyridin-1-yl}-3-{(1R)-1-[2-(trifluoromethyl)phenyl]ethoxy}thiophene-2-carboxamide], which IC50 is on record?
The IC50 was less than 10 nM.

How did the IC50 turn out when `NC(=O)c1sc(-n2cnc3ccncc32)cc1OCc1ccc(C(F)(F)F)cc1` [Example 28, 5-(3H-imidazo[4,5-c]pyridin-3-yl)-3-{[4-(trifluoromethyl)benzyl]oxy}thiophene-2-carboxamide] was run?
Its IC50 is 100 to 1000 nM.

Which IC50 does the source give for `C[C@@H](Oc1cc(-n2cnc3cnc(CN4CCN(C5CC5)CC4)cc32)sc1C(N)=O)c1ccccc1C(F)(F)F` [Example 60, 5-{6-[(4-cyclopropylpiperazin-1-yl)methyl]-1H-imidazo[4,5-c]pyridin-1-yl}-3-{(1R)-1-[2-(trifluoromethyl)phenyl]ethoxy}thiophene-2-carboxamide] here?
Its IC50 is less than 10 nM.

`CCN1CCN(Cc2cc3c(cn2)ncn3-c2cc(O[C@H](C)c3ccccc3C(F)(F)F)c(C(N)=O)s2)CC1` [Example 107, 5-{6-[(4-ethylpiperazin-1-yl)methyl]-1H-imidazo[4,5-c]pyridin-1-yl}-3-{(1R)-1-[2-(trifluoromethyl)phenyl]ethoxy}thiophene-2-carboxamide] was tested. Which IC50 did it give?
The IC50 was less than 10 nM.

How did the IC50 turn out when `CC(Oc1cc(-n2cnc3cnc(CO)cc32)sc1C(N)=O)c1ccc(F)cc1C(F)(F)F` (stereo not drawn) [Example 51, 3-{1-[4-fluoro-2-(trifluoromethyl)phenyl]ethoxy}-5-[6-(hydroxymethyl)-1H-imidazo[4,5-c]pyridin-1-yl]thiophene-2-carboxamide] was run?
The IC50 was less than 10 nM.

How did the IC50 turn out when `NC(=O)c1sc(-n2cnc3cnccc32)cc1OCc1ccc(F)cc1C(F)(F)F` [Example 34, 3-{[4-fluoro-2-(trifluoromethyl)benzyl]oxy}-5-(1H-imidazo[4,5-c]pyridin-1-yl)thiophene-2-carboxamide] was run?
The IC50 was 10 to 100 nM.

How did the IC50 turn out when `C[C@@H](Oc1cc(-n2cnc3ccncc32)sc1C(N)=O)c1ccccc1Cl` [Example 32, 3-[(1R)-1-(2-chlorophenyl)ethoxy]-5-(3H-imidazo[4,5-c]pyridin-3-yl)thiophene-2-carboxamide] was run?
Its IC50 is less than 10 nM.
